Laboratory results reported in patent US5158942A, “Process of using phospholipid derivatives to inhibit multiplication of the human immunodeficiency virus” (Boehringer Mannheim GmbH, priority 1989, dated 1992).
In brackets after ≈: the same amount, converted by molar mass.

Assays:
[1] = M. S. Hirsch, J. Infect. Dis., 157, 427-431/1988; cited from earlier work
HIV = experiment: Inhibition of HIV replication in HIV infected human T-lymphoma cells or human fetal lung cells; amount of virus determined by new infection of human fetal lung cells; type: cell-based; conditions: Human immunodeficiency virus 1, readout: new infection of human fetal lung cells, read-out: IC50-value (concentration which results in an inhibition of the replication of 50%)
Method: HIV infected human T-lymphoma cells or human fetal lung cells were treated with the inventive compound by using different concentration ranges of the test compound. The amount of the viruses was then determined by way of new infection of human fetal lung cells. The decrease of the resulting positive HIV-infected cells was regarded as a measure for the antiviral activity of the compound tested.
The following table gives the corresponding concentration, which results in an inhibition of the replication of 50% (IC50 -value): […]

| SMILES | IC50 (HIV) [µg/mL] | toxicities in the therapeutic range [1] |
| --- | --- | --- |
| Cc1cn([C@H]2C[C@H](N=[N+]=[N-])[C@@H](CO)O2)c(=O)[nH]c1=O [AZT, 3'-azido-3'deoxythymidine] |  | very severe toxicities occurring even in the therapeutic range |
| CCCCCCCCCCCCCCCCSCC(COP(=O)([O-])OCC[N+](C)(C)C)OCCCCCCCCCC (stereo not shown) [Example 5, 3-Hexadecylmercapto-2-decyloxypropyl-1-phosphoric acid monocholine ester] | 20 (≈ 31.3 µM) |  |
| CCCCCCCCCCCCCCCCOC(COP(=O)([O-])OCC[N+](C)(C)C)CSCCCCCCCCCC (stereo not shown) [Example 6, 3-Decylmercapto-2-hexadecyloxypropyl-1-phosphoric acid monocholine ester] | 50 (≈ 78.4 µM) |  |
| CCCCCCCCCCCCS(=O)(=O)CC(COP(=O)([O-])OCC[N+](C)(C)C)OCCCCCCCCCC (stereo not shown) [Example 8, 3-Dodecylsulphonyl-2-decyloxypropyl-1-phosphoric acid monocholine ester] | 2 (≈ 3.26 µM) |  |
| CCCCCCCCCCCCOC(COP(=O)([O-])OCC[N+](C)(C)C)CS(=O)(=O)CCCCCCCCCC (stereo not shown) [Example 9, 3-Decylsulphonyl-2-dodecyloxypropyl-1-phosphoric acid monocholine ester] | 2 (≈ 3.26 µM) |  |
| CCCCCCCCCCCCSCC(CSCCCCCCCCCCCC)OP(=O)([O-])OCC[N+](C)(C)C [Example 20, 1,3-Bis-(dodecylmercapto)-propyl-1-phosphoric acid monocholine ester] | 4 (≈ 6.39 µM) |  |
| CCCCCCCCCCCCSCC(COP(=O)([O-])OCC[N+](C)(C)C)NC(=O)CCCCCCCCCC (stereo not shown) [Example 21, 3-Dodecylmercapto-2-decylcarbonylaminopropyl-1-phosphoric acid monocholine ester] | 5 (≈ 8.21 µM) |  |

The next lines start with results.

| IC50 (HIV) [µg/mL] | SMILES | toxicities in the therapeutic range [1] |
| --- | --- | --- |
| 4 (≈ 6.56 µM) | CCCCCCCCCCCCOC(COP(=O)([O-])OCC[N+](C)(C)C)CSCCCCCCCCCCCC (stereo not shown) [Example 4, 3-Dodecylmercapto-2-dodecyloxypropyl-1-phosphoric acid monocholine ester] |  |
| 20 (≈ 35.2 µM) | CCCCCCCCCCCSCC(COP(=O)([O-])OCC[N+](C)(C)C)OCCCCCCCCCC (stereo not shown) [Example 11, 3-Undecylmercapto-2-decyloxypropyl-1-phosphoric acid monocholine ester] |  |
| 4 (≈ 6.56 µM) | CCCCCCCCCCCCCCSCC(COP(=O)([O-])OCC[N+](C)(C)C)OCCCCCCCCCC (stereo not shown) [Example 13, 3-Tetradecylmercapto-2-decyloxypropyl-1-phosphoric acid monocholine ester] |  |
| 4 (≈ 6.69 µM) | CCCCCCCCCCCC[S+]([O-])CC(COP(=O)([O-])OCC[N+](C)(C)C)OCCCCCCCCCC (stereo not shown) [Example 22, 3-Dodecylsulphinyl-2-decyloxypropyl-1-phosphoric acid monocholine ester] |  |
| 4 (≈ 6.69 µM) | CCCCCCCCCCCOC(COP(=O)([O-])OCC[N+](C)(C)C)C[S+]([O-])CCCCCCCCCCC (stereo not shown) [Example 24, 3-Undecylsulphinyl-2-undecyloxypropyl-1-phosphoric acid monocholine ester] |  |
| 2 (≈ 3.27 µM) | CCCCCCCCCCCCC[S+]([O-])CC(COP(=O)([O-])OCC[N+](C)(C)C)OCCCCCCCCCC (stereo not shown) [Example 25, 3-Tridecylsulphinyl-2-decyloxypropyl-1-phosphoric acid monocholine ester] |  |
